We go through two compounds from PMC6025358 (Marine Drugs, 2018).

In general, inhibition refers to the relative decrease from the control value, in per cent. The term IC50 denotes the concentration that gives 50% inhibition. Low readings indicate higher potency, high ones lower potency.

The assay deals with rat α3β4 nAChR (Rattus norvegicus, UniProt P04757+P12392). Kind of assay: cell-based. To be noted: for inhibition at 0.1 µM / inhibition at 1 µM: read-out: Inhibition of ACh-evoked α3β4 nAChR-mediated current.
Sequence of rat α3β4 nAChR (P04757 26-499 limits assumed): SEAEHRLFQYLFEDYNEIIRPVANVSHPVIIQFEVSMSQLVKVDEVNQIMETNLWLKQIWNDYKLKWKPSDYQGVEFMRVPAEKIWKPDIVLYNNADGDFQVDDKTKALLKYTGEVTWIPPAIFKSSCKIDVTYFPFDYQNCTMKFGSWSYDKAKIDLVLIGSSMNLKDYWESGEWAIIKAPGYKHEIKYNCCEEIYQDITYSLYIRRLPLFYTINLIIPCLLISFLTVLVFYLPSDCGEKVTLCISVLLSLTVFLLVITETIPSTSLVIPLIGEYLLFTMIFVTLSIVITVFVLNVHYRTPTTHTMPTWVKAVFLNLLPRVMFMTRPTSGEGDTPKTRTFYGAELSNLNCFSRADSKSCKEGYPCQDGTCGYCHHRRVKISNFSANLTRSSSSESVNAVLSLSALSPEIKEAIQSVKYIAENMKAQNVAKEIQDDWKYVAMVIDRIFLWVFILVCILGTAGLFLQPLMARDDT
Sequence of rat α3β4 nAChR (P12392 21-495 limits assumed): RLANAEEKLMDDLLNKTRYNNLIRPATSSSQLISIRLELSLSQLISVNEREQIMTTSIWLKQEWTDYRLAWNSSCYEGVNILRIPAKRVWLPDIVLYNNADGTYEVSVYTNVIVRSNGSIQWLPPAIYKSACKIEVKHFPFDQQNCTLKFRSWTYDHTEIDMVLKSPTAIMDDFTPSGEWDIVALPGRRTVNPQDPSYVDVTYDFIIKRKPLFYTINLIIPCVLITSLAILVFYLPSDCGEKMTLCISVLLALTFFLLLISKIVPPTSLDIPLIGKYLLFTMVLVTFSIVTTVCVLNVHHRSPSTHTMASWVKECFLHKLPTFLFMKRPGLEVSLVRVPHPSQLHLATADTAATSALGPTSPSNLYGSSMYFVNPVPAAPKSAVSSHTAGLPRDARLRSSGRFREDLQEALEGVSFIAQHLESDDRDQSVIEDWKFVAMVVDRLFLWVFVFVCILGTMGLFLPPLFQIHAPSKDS

Each structure is given as a SMILES string.

With `CC[C@H](C)[C@@H]1NC(=O)[C@@H]2CCCN2C(=O)[C@H](CO)NC(=O)[C@H](CCSC)NC(=O)[C@H](C)NC(=O)[C@H](CO)NC(=O)[C@@H]2CSSC[C@H](NC(=O)CN)C(=O)N[C@@H](CSSC[C@@H](C(N)=O)NC1=O)C(=O)N[C@@H](CO)C(=O)N[C@@H](Cc1c[nH]cn1)C(=O)N1CCC[C@H]1C(=O)N[C@@H](C(C)C)C(=O)N2` [TxID], the inhibition at 0.1 µM is ~80% and the inhibition at 1 µM was ~100%.

For the compound `CC[C@H](C)[C@@H]1NC(=O)[C@@H]2CCCN2C(=O)[C@H](CO)NC(=O)[C@H](CC[S+](C)[O-])NC(=O)[C@H](C)NC(=O)[C@H](CO)NC(=O)[C@@H]2CSSC[C@H](NC(=O)CN)C(=O)N[C@@H](CSSC[C@@H](C(N)=O)NC1=O)C(=O)N[C@@H](CO)C(=O)N[C@@H](Cc1c[nH]cn1)C(=O)N1CCC[C@H]1C(=O)N[C@@H](C(C)C)C(=O)N2` (some centres unmarked) [[MO]TxID], the midpoint of inhibition, the IC50, lay at 0.245 µM; the inhibition at 0.1 µM was determined as 25%; the inhibition at 1 µM was found to be 72%.
